Entries after “also recorded” stand apart in the source; their conditions may differ.
Legend:
C57BL/6J mice = assay: LPS-induced lung inflammation mouse model, chemokines in BAL fluid by ELISA; type: in vivo; conditions: sulindac 40 mg/kg i.p. 1 h before intratracheal LPS 5 mg/kg
Experimental: A. Protocol for lung inflammation mouse models. Lung inflammation was induced by two intra tracheal instillation of LPS (5 mg/kg), 24 h and 6 h prior sacrifice. Sulindac (40 mg/kg) or diluents were administered by intraperitoneal injection 1 h before LPS instillation. B. Mouse macrophage inflammatory protein (MIP-2) was monitored in BAL fluid by ELISA assay. LPS-stimulated MIP-2 production was inhibited by sulindac.
Male C57BL/6J mice (8-10 wk old) were treated by intraperitoneal (IP) injection of sulindac (40 mg/kg) or vehicle one hour before the time of endotoxin administration which caused lung injury. Lung inflammation was induced by LPS from E. coli (Sigma) prepared in saline and administered by injection intra-tracheal. In order to track at a single time point after LPS challenge both the early humoral and the late cell infiltrating components of the inflammatory response, a volume of 50 μl LPS solution (5 mg/kg) was administered at two consecutive doses with a 18 h interval between doses. This challenge method enables to track both cytokine and cellular responses to induction of inflammation. […] The chemokines keratinocyte chemoattractant (KC) and mouse macrophage inflammatory protein (MIP-2) were monitored in BAL fluid following the corresponding manufacturers' protocols using a standard sandwich enzyme-linked immune absorbent assay (ELISA, R&D Systems).

p65 = assay: Western blot of nuclear p65 after TNFα; type: cell-based; conditions: HeLa control cells; 500 μM 1 h pre-treatment; TNFα 10 ng/ml 30 min
Experimental: HeLa control cells were pre-treated with diluent (0.5%) or sulindac (500 μM) for 1 h and stimulated or not with 10 ng/ml TNFα for 30 min. Nuclear and cytosolic fractions were obtained by differential centrifugation. A. Analysis by western blot of cytosolic IKb quantity. The Iκb quantity was expressed in percent of control. […] B. Analysis by western blot of nuclear p65 quantity. Nuclear p65 quantity was expressed in percent of diluents+TNFα.
Nuclear and cytosolic fraction was obtained by differential centrifugation. Briefly, cells were lyses in buffer C (10 mM Hepes, 60 mM KCl, 1 mM EDTA, 7.8% NP40, 100 mM DTT, pH 7.6). After centrifugation, nucleus pellet were lyses in buffer N (27 mM Tris, 566 mM NaCl, 2 mM MgCl2, 1.3 mM EDTA, pH 8). Aliquots of fraction (30 μg protein) were separated by SDS-PAGE and transferred on PVDF membrane. The western blots were probed with mouse monoclonal antibodies specific for IκB or p65 (Santa-Cruz) 2 h at room temperature.

CFTR = CFTR (Homo sapiens, UniProt P13569); assay: Short circuit current, cAMP-dependent Cl secretion (forskolin + IBMX) in HNEC; type: cell-based; design: Nasal polyps were obtained from non-CF requiring surgery for their nasal polyposis; endogenous in cells; host or cells: primary human nasal epithelial cells (HNEC) from nasal polyps of non-CF patients; conditions: primary HNEC, air-liquid interface, 500 μM basolateral, 2 h, mean SEM of five filters
Experimental: B. Chloride activity in HeLa Wt cells was measured by MQAE assay, after 3 h of treatment by NSAID (500 μM) or diluent. CFTR activity was expressed in rate of UFA/sec, calculated by difference between ((Ft−F0)/t) with CFTR induction and ((Ft−F0)/t) without CFTR induction. […] C. Primary culture of human nasal epithelial cell (HNEC) grown on Snapwell filters (air-liquid interface) were exposed basolaterally to sulindac (500 μM) or vehicle for 2 h and immediately mounted into a voltage-clamp system to bioelectric measurements. Short circuit current was measured with addition of amiloride to evaluated amiloride sensitive transport or with forskolin and IBMX for induced cAMP-dependent Cl secretion.
Two cell models were used to the interface air-liquid model for ionic efflux assays by short circuit current and to dose the basolateral IL-8 secretion. Calu-3 are derived from lung adenocarcinoma and are able to polarized and express a high rate of endogenous CFTR. […] Transepithelial resistance and transepithelial potential difference were measured every 3 days using a microvoltmeter (World Precision Instruments, Astonbury, UK).
Cells were grown at 37° C. in a 5% CO2 incubator in DMEM with Glutamax (Invitrogen) and 10% fetal bovine serum (SVF). […] The effects of treatment in HNEC cultures on snapwell inserts were evaluated between days 10 and 16. […]

Sequence of CFTR (P13569 whole entry): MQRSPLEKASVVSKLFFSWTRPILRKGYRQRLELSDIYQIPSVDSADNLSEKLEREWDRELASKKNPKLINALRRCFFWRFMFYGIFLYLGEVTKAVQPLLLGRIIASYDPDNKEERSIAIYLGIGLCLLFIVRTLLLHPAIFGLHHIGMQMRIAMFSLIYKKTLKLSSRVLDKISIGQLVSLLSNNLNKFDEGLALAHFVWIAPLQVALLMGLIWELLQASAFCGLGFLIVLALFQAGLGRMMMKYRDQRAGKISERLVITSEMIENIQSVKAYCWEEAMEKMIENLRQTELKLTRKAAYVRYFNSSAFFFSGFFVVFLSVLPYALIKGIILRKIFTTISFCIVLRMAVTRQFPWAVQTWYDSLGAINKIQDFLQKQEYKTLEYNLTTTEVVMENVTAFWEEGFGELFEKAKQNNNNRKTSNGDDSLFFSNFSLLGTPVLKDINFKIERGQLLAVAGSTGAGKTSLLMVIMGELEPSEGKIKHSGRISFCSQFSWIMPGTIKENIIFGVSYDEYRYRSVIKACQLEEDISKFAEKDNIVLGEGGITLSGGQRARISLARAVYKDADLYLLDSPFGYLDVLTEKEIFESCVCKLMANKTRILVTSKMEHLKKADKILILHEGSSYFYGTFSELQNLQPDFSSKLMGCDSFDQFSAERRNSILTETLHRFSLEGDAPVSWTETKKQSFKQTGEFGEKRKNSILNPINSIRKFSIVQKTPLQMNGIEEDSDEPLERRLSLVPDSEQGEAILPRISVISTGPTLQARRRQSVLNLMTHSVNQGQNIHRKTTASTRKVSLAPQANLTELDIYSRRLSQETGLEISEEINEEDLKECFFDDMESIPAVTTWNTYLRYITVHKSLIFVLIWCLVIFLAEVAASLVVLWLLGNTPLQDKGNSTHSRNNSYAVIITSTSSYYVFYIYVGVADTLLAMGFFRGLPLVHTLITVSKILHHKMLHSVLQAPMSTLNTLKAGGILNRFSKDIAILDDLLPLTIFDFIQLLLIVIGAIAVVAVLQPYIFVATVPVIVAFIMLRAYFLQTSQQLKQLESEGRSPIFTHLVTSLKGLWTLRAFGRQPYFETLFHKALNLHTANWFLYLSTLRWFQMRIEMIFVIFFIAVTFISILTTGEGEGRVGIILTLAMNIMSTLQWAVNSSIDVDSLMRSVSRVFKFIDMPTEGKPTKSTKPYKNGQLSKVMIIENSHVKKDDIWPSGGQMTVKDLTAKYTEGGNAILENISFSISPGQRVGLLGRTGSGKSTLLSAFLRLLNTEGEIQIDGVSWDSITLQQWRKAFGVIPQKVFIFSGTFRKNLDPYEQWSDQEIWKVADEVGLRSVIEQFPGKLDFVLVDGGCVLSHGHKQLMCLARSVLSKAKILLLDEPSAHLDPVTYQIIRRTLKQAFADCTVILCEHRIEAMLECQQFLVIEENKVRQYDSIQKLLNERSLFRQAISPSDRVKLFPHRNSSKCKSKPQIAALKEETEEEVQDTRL

CC1=C(CC(=O)O)c2cc(F)ccc2/C1=C\c1ccc([S+](C)[O-])cc1 (centres unmarked) [sulindac, (Z)-5-fluoro-2-methyl-1-[p-(methylsulfinyl)benzylidene]-indene-3-acetic acid]
KC (keratinocyte-derived chemokine) in BAL fluid (C57BL/6J mice): decreased the secretion of KC and MIP-2 | MIP-2 in BAL fluid (C57BL/6J mice): inhibited; also recorded: decreased the secretion of KC and MIP-2 | nuclear translocation of NF-κB (nuclear p65 quantity) (p65): not significantly modified; also recorded: did not prevent the nuclear translocation of NF-κB | increase of CFTR activity (short circuit current, forskolin + IBMX) (CFTR): increase of CFTR activity | increase of CFTR activity (short circuit current, forskolin + IBMX) (CFTR; listed as Sulindac): 46.35%

Reference: patent US9402821B2, “Methods and pharmaceutical compositions for treatment of cystic fibrosis” (INSERM (Institut National de la sante et de la Recherche …, priority 2012, dated 2016)
